Consider four molecules from patent US20030144271A1, “Methods for the treatment of substance abuse” (priority 2000, published 2003).

Values joined by “and” are separate entries in the source; they are usually repeats but may differ in a detail not shown here. Identical values can stand only once. “Also recorded” adds a separate entry of the source.

In data set [1] the test system is alcohol / volatile inhalant dependent patients. The experiment in a line: Open Alc/Inhalant therapeutic (N + A + CCB) drug dependence trial (Example 7, Table 2). It is filed as in vivo, human. The settings on record: A666 × 3 mg/d; for Key Parameters: Audit Score: score out of 40; for Key Parameters: Abstinence / Key Parameters: Craving / Key Parameters: Relapse: scale 0-10. On the procedure:
(v) Scoring of key parameters was based on questionaries completed by the subject. For the audit score, an initial base-line questionnaire preceding treatment and subsequently, a similar weekly questionnaire, following each week of treatment was conducted by the trial clinician and trial subject. The subject's answers were assigned a value and the score for all 10 questions totalled (out of 40). A total of 13+ is indicated as alcohol dependent, 8+ as a hazardous drinker and less than 8 a safe drinker, with 0 indicating abstinence. Levels of Craving, tendency to Relapse and degree of Abstinence were rated by the subject on a scale of 0-10, with 0,0 indicating absence of craving and relapse respectively, and 10 indicating total abstinence from alcohol and volatile inhalant.
Two patients were treated in an open trial with a daily dose of naltrexone, acamprosate and verapamil. Key parameters were evaluated as per Example 6. The results are presented in Table 2, depicting treatment duration, patient characteristics, key parameters and improved parameters and side-effects.

The test system of data set [2] is detoxified opiate subjects. The experiment in a line: Double-blind placebo-controlled cross-over trial in detoxified opiate subjects (Table 1A, comparative). The note with it: weekly; for Abstinence: scale 0-10, 10 = total abstinence. It is filed as in vivo, human. The text has this: (ii) To permit their optimal comparison by the same test subject, treatments A & C were both given for the same and longest length of time available before the trial was terminated. […] The actual drug components of treatments A, B and C for each trial subject, and the duration of each treatment are also shown in Table 1 in each case.
(v) Scoring of key parameters was based on questionaries completed by the subject. […] The subject's answers were assigned a value and the score for all 10 questions totalled (out of 40). A total of 13+ is indicated as alcohol dependent, 8+ as a hazardous drinker and less than 8 a safe drinker, with 0 indicating abstinence. Levels of Craving, tendency to Relapse and degree of Abstinence were rated by the subject on a scale of 0-10, with 0,0 indicating absence of craving and relapse respectively, and 10 indicating total abstinence from alcohol and volatile inhalant.
[…] […] However, many opiate (or other substance) addicts also have a secondary addiction to alcohol or use alcohol excessively when they are unable to obtain the opiate of addiction. The present invention can also be used to treat such multi-substance addicted subjects.

For data set [3] the following is noted: in vivo; cited from earlier work.
In data set [4] the test system is detoxified alcoholic patients. Briefly: N-of-1 double-blind placebo-controlled cross-over clinical trial in detoxified alcoholic patients (Example 6, Table 1). The data set is classed as in vivo, human. The note with it: 5 mg, in two subjects. On the procedure: The patient characteristics, their randomised active and control treatments and their outcomes, and the key and ancillary parameters on which the progressive comparative weekly safeties and efficacies of the active and control treatments were determined for each of the 6 double-blind trial subjects are all shown in Table 1.
(i) Each trial subject received sequentially 3 different but operationally-related individual treatments, each on an oral once daily basis, labelled, for convenience, A (which may randomly be an active or control treatment), B (wash-out) and C (which may also randomly be a control or […])
(ii) To permit their optimal comparison by the same test subject, treatments A & C were both given for the same and longest length of time available before the trial was terminated. Patient and clinician bias in interpretation was minimised or excluded by giving these treatments on a randomised double-blind basis which ensured that neither knew if the active or control treatment was given first or last. Thus sometimes, labelled treatment A or C was the active or control treatment and vice versa. The actual drug components of treatments A, B and C for each trial subject, and the duration of each treatment are also shown in Table 1 in each case. […]

With `CC(=O)NCCCS(=O)(=O)O` [A666 × 3], the “Key Parameters: Audit Score” value in data set [1] (subject 1 (Alc 20+ Units/d), 01/07/00) stood at 37. In data set [1] (subject 1, 01/07/00), the “Improved (1) Ancillary Parameters: Energy” value is given as 0, the “Improved (1) Ancillary Parameters: In-Control” value was 0, the “Improved (1) Ancillary Parameters: Thinking” value is 0 and the “Patient's View” value was 0. In data set [1] (subject 1, 01/07/00), the Side-effects result was “Nil”, the “Key Parameters: Abstinence” value stood at 0, the “Key Parameters: Craving” value was 8 and the “Key Parameters: Relapse” value came out at 10. For the same molecule, in data set [1] (subject 1, 09/07/00), the “Improved (1) Ancillary Parameters: Energy” value was found to be 0, the “Improved (1) Ancillary Parameters: Thinking” value is listed as 0, the “Patient's View” value is on record as “Progress+” and the Side-effects entry is “Nil”. In data set [1] (subject 1, 09/07/00), the “Key Parameters: Abstinence” value was 1, the “Key Parameters: Craving” value was determined as 7, the “Key Parameters: Relapse” value came out at 8 and the “Key Parameters: Audit Score” value is 37.

With `O=C1CC[C@@]2(O)[C@H]3Cc4ccc(O)c5c4[C@@]2(CCN3CC2CC2)[C@H]1O5` [N25 + Pl], the Relapse in data set [2] (scale 0-10, 0 = absence, listed as N5 + Pl) is on record as 0. Besides, the Abstinence in data set [2] (listed as N5 + Pl) is recorded as 10. Also, the “Patient's View” value in data set [2] was “Progress 0”; in data set [2] (assessment date 03/11/00) it was “Progress +/−”; in data set [2] (assessment date 15/11/00), “Progress +”; in data set [2] (listed as N5 + Pl) it was “Progress ++”; in data set [2] (listed as NAll25 + Pl, assessment date 03/11/00), “Progress+/−”; in data set [2] (listed as NAll25 + Pl, assessment date 15/11/00), “Progress+”.

Turning to `O=C1CC[C@@]2(O)[C@H]3Cc4ccc(O)c5c4[C@@]2(CCN3CC2CC2)[C@H]1O5` [N25, Naltrexone], in data set [2], the Abstinence is 10 and 8; the “Patient's View” value was “Progress+; also recorded: Progress++; also recorded: Progress+++”.

Take `CCOC(=O)C1=C(COCCN)NC(C)=C(C(=O)OC)C1c1ccccc1Cl` (centres unmarked) [amlodipine]: the “time to reach a plateau plasma concentration” value in data set [3] is 5 to 10 days. Further, in data set [4], the “Side-effects of the administered dose” value was “a number of initial transient side-effects”.
